Assays:
[1] = tested on: Barley; assay: Barley emergence after PGR seed treatments; format: in vivo
Protocol: (§1) Barley seeds were treated with paclobutrazol (alone) and with paclobutrazol in combination with gibberrelic acid at varying rates. The resulting plants were then additionally treated with foliar applications of trinexapac plant growth regulator (applied as Palisade™ 128 and Palisade™ 150) at the Feekes 6 timing. Emergence and percent lodging were measured against the check. The results are found in Tables BB and CC.

[2] = tested on: Xanthamonas spp.; assay: Xanthamonas infection of tomato transplants; format: in vivo; settings: versus fungicidal mixture alone
Description: Disease resistance in the post-emergent plant has also been shown through use of plant growth regulators as a seed treatment. A set of tomato transplants from seed treated with paclobutrazol and a fungicidal mixture of fludioxonil and mefenoxam was inoculated with Xanthamonas spp. 18 days after transplanting. […] The antibacterial activity of the PGR-treated plants is significant at several rates of application.

[3] = tested on: vine ripe tomatoes; assay: Yields of vine ripe tomatoes; format: in vivo, tomato
Description: Table O also illustrates the safening effect of the PGR on the seed to later foliar application of the plant activator. Without the PBZ on the seed, the yield decreases from 119 to 96.

[4] = tested on: Variety Florida 47 tomatoe; assay: Water use efficiency: cumulative water used by tomato transplants; format: in vivo; settings: for Cumulative Water Used (ml/6 plants), projected through 6th week: Table H
Protocol: Variety Florida 47 tomatoe seeds were treated and the plants tested with respect to the cumulative amount of water used to sustain the plants from seeding through growth.
Using the data obtained from these trials, and empirical calculations, a tomato transplant business could save approximately 700 gallons of water while producing 27,000 transplants.
20 tables/greenhouse×28 flats/table×48 plants/flat×0.6 liters/6 plants×gal/3.75 1=710 gallons of water.

[5] = tested on: Colorado Potato Beetle; assay: Insect control: Colorado Potato Beetle count on plants from treated seed; format: in vivo
Description: Presence of Colorado Potato Beetle was studied in plants resulting from the seed treatments with paclobutrazol.

[6] = tested on: Barley; assay: Barley lodging control; format: in vivo
Protocol: as §1

CC(C)(C)[C@@H](O)[C@@H](Cc1ccc(Cl)cc1)n1cncn1 (racemic) [PBZ, paclobutrazol]
Emergence, 8 Days after planting (no. emerged-6 ft row) ([1]; listed as PBZ rate (1)): 68.2 | Emergence, 8 Days after planting (no. emerged-6 ft row) ([1]; listed as PBZ rate (3)): 38.7 | Emergence, 8 Days after planting (no. emerged-6 ft row) ([1]; listed as PBZ ratge (2)): 36.3 | Emergence, 14 Days after planting (no. emerged-6 ft row) ([1]; listed as PBZ rate (1)): 113.2 | Emergence, 14 Days after planting (no. emerged-6 ft row) ([1]; listed as PBZ rate (3)): 114.5 | Emergence, 14 Days after planting (no. emerged-6 ft row) ([1]; listed as PBZ ratge (2)): 106.3 | resistance against xanthamonas infection (in words) [2]: greater resistance | yield (in words) ([3]; PBZ on the seed, later foliar plant activator): substantially higher | Cumulative Water Used (ml/6 plants), projected through 6th week ([4]; 1-Aug): 883 ml/6 plants | Cumulative Water Used (ml/6 plants), projected through 6th week ([4]; 21-Jul): 113 ml/6 plants | Cumulative Water Used (ml/6 plants), projected through 6th week ([4]; 22-Jul): 172 ml/6 plants | Cumulative Water Used (ml/6 plants), projected through 6th week ([4]; 23-Jul): 259 ml/6 plants | Cumulative Water Used (ml/6 plants), projected through 6th week ([4]; 25-Jul): 339 ml/6 plants | Cumulative Water Used (ml/6 plants), projected through 6th week ([4]; 26-Jul): 423.17 ml/6 plants | Cumulative Water Used (ml/6 plants), projected through 6th week ([4]; 27-Jul): 506 ml/6 plants | Cumulative Water Used (ml/6 plants), projected through 6th week ([4]; 28-Jul): 575 ml/6 plants | Cumulative Water Used (ml/6 plants), projected through 6th week ([4]; 29-Jul): 649 ml/6 plants | Cumulative Water Used (ml/6 plants), projected through 6th week ([4]; 31-Jul): 790 ml/6 plants | water use (in words) ([4]; during transplant production): decreased water use | No. Potato Beetle Adults/plant [5]: 0.8 | % Lodging ([6]; 7 Jun, listed as PBZ rate (1)): 85.8% | % Lodging ([6]; 7 Jun, listed as PBZ rate (3)): 72.5% | % Lodging ([6]; 7 Jun, listed as PBZ ratge (2)): 68.3% | % Lodging ([6]; 11 Jun, listed as PBZ rate (1)): 29.2% | % Lodging ([6]; 11 Jun, listed as PBZ rate (3)): 9.2% | % Lodging ([6]; 11 Jun, listed as PBZ ratge (2)): 16.8% | % Lodging ([6]; 18 Jun, listed as PBZ rate (1)): 31.7% | % Lodging ([6]; 18 Jun, listed as PBZ rate (3)): 20% | % Lodging ([6]; 18 Jun, listed as PBZ ratge (2)): 23.3% | % Lodging ([6]; 19 May): 0%

O=C1CC(C(=O)O)CC(=O)C1=C(O)C1CC1 (stereo not shown) [Trinexapac [150] Feekes 6]
% Lodging ([6]; 7 Jun): 0.2% | % Lodging ([6]; 11 Jun): 0% | % Lodging ([6]; 18 Jun): 0% | % Lodging ([6]; 19 May): 11.7%

CSC(=O)c1cccc2nnsc12 [ASM, acibenzolar-S-methyl]
Cumulative Tomato Yields No. Fruit/Plot (12 plants) ([3]; 29-Aug, averages of 5 programs (ASM) and 3 programs (ASM + PBZ), PBZ on seed, ASM foliar): 96

O=C1CC(C(=O)O)CC(=O)C1=C(O)C1CC1 (stereo not shown) [Trinexapac [128] Feekes 6]
% Lodging ([6]; 7 Jun): 7.5% | % Lodging ([6]; 7 Jun, listed as Trinexapac [128] Feekes 6 + 7 days): 79.2% | % Lodging ([6]; 11 Jun): 0.5% | % Lodging ([6]; 11 Jun, listed as Trinexapac [128] Feekes 6 + 7 days): 17.2% | % Lodging ([6]; 18 Jun): 0% | % Lodging ([6]; 18 Jun, listed as Trinexapac [128] Feekes 6 + 7 days): 1.7% | % Lodging ([6]; 19 May): 8.3% | % Lodging ([6]; 19 May, listed as Trinexapac [128] Feekes 6 + 7 days): 7.5%

— patent publication US20070149401A1, “METHODS AND COMPOSITION FOR GROWTH ENGINEERING AND DISEASE CONTROL” (Syngenta Crop Protection, Inc., priority 2005, published 2007)
